In article doi:10.1101/2024.08.19.608619, “Discovery of potent SARS-CoV-2 nsp3 macrodomain inhibitors uncovers lack of translation to cellular antiviral response” (bioRxiv, 2024):
In brackets after ≈: the same amount, converted by molar mass. Where two headings read alike, the source gives them in different places.

Columns and labels:
[1] = Permeability Papp (AB) MDR1/MDCKII; conditions: In vitro MDR1-MDCKII permeability, mean; for papp_a_to_b_mean: A to B; for perc_recovery_a_to_b_mean: recovery A to B
[2] = test system: SARS-CoV-2, isolate USA-WA1/2020; experiment: microbe, parasite or virus in culture; format: cell-based; conditions: HeLa-ACE2 SARS-CoV-2 antiviral effect without P-gp inhibitor
SARS-CoV-2 = experiment: Antiviral effect in iPSC-derived pneumocyte system; format: cell-based; conditions: iPSC pneumocytes SARS-CoV-2 antiviral effect
HeLa-ACE2 cells = conditions: protocol HeLa-ACE2 cytotoxicity
[3] = Hepatic microsomal stability, MLM; format: in vitro ADME
in vitro = experiment: in vitro; parameters: Cytotoxicity in iPSC-derived pneumocytes, CC50; conditions: human, ipsc-derived pneumocytes; ASAP-0008327-001=ASAP-0011171-001; read-out: 50.0
Excerpt: Finally, we consider the hypothesis that interferon response triggers ADP-ribosylation, thus profiling the compounds in enhanced and physiologically relevant interferon environments could reveal detectable antiviral effects. […] Furthermore, HeLa-ACE2 cells, and all cancerous cell lines, display defective innate immune response ([1]). As such, we also assess our compound in a primary-like iPSC-derived pneumocyte system (Figure 7C), showing likewise a lack of antiviral activity in this physiologically relevant innate immunity system.

LogD = conditions: pH 7.4; In vitro LogD
iPSC pneumocytes = iPSC pneumocytes cytotoxicity; format: cell-based
Excerpt: Supplement media-1.zip/Cytotoxicity.csv, table | column: cc10; cc50; perc_min_measured; perc_max_measured

[4] = Hepatic microsomal stability, HLM; format: in vitro ADME, human; conditions: In vitro human liver microsomal stability; for perc_remaining_no_cofactor: no cofactor
[5] = In vitro kinetic solubility; conditions: In vitro kinetic solubility, ph 7.4
SARS-CoV-2 nsp3-mac1 [6] = target: T1, SARS-CoV-2 nsp3-mac1 (Severe acute respiratory syndrome coronavirus 2, UniProt P0DTD1); experiment: biochemical; format: biochemical; conditions: for inhibition at 50 µM: read-out: perc_inhibition_mean; for perc_inhibition_mean: SARS-CoV-2 nsp3 macrodomain TR-FRET single point, concentration 50.0 uM
SARS-CoV-2 nsp3-mac1 [7] = target: T1, SARS-CoV-2 nsp3-mac1; experiment: biochemical; conditions: for hill_slope: TR-FRET dose response curve fit; for perc_max_measured: highest measured response; for perc_min_measured: lowest measured response
SARS-CoV-2 nsp3-mac1 [8] = target: T1, SARS-CoV-2 nsp3-mac1; experiment: biochemical; parameters: SARS-CoV-2 nsp3 macrodomain TR-FRET single point, per cent inhibition, n=2
[9] = maximum measured response of dose series
[10] = minimum measured response of dose series
[11] = highest measured response of the dose series
[12] = lowest measured response of the dose series
[13] = In vitro mouse liver microsomal stability
[14] = IC50, nsp3-mac1 activity, Figures 1-3 and text
[15] = TR-FRET dose response, supplement, read-out: ic50

Which papp_a_to_b_mean [1] does the source give for CNC(=O)Cn1cc(-c2cc3c(N[C@H](c4ccc5c(c4)S(=O)(=O)CCC5)C(C)C)ncnc3[nH]2)cn1 (single isomer, unassigned) [ASAP-0011171] here?
Its papp_a_to_b_mean is 0.396 ×10⁻⁶ cm/s.

And the perc_recovery_a_to_b_mean [1]?
Its perc_recovery_a_to_b_mean is 65.1%.

What about the perc_max_measured [2, 9] of the same compound?
The perc_max_measured was 108.143%.

And the perc_min_measured [2, 10]?
The perc_min_measured was 92.194%.

And the EC50 ([2]; read-out: ec50)?
The EC50 was > 20 µM.

And the EC90 ([2]; read-out: ec90)?
Its EC90 is > 20 µM.

What about the EC50 (SARS-CoV-2) of the same compound?
The EC50 was > 50 µM.

And the EC90 (SARS-CoV-2)?
Its EC90 is > 50 µM.

And the perc_max_measured (SARS-CoV-2; [9])?
Its perc_max_measured is 106.027%.

What about the perc_min_measured (SARS-CoV-2; [10]) of the same compound?
The perc_min_measured was 60.326%.

And the CC50 (HeLa-ACE2 cells)?
Its CC50 is > 20 µM.

What about the cc10 (HeLa-ACE2 cells) of the same compound?
The cc10 was > 20.0 µM.

What about the perc_max_measured (HeLa-ACE2 cells; [11]) of the same compound?
The perc_max_measured was 102.722%.

What about the perc_min_measured (HeLa-ACE2 cells; [12]) of the same compound?
Its perc_min_measured is 92.936%.

What about the clint [3, 13] of the same compound?
The clint was 111.0 µL/min/mg.

And the perc_remaining [3, 13]?
The perc_remaining was 16.0%.

And the t_half [3, 13]?
Its t_half is 15.0 min.

And the perc_remaining_no_cofactor ([3]; In vitro mouse liver microsomal stability, no cofactor)?
The perc_remaining_no_cofactor was 96.0%.

What about the CC50 (in vitro) of the same compound?
Its CC50 is > 50 µM.

And the logd (LogD)?
The logd was 2.4.

What about the CC50 (iPSC pneumocytes) of the same compound?
The CC50 was > 50 µM.

What about the cc10 (iPSC pneumocytes) of the same compound?
Its cc10 is > 50.0 µM.

What about the perc_max_measured (iPSC pneumocytes; [11]) of the same compound?
Its perc_max_measured is 98.842%.

What about the perc_min_measured (iPSC pneumocytes; [12]) of the same compound?
The perc_min_measured was 89.646%.

What about the clint [4] of the same compound?
The clint was 92.0 µL/min/mg.

What about the perc_remaining [4] of the same compound?
The perc_remaining was 23.0%.

And the t_half [4]?
The t_half was 18.1 min.

What about the perc_remaining_no_cofactor [4] of the same compound?
The perc_remaining_no_cofactor was 101.0%.

What about the solubility_mean [5] of the same compound?
The solubility_mean was 323 µM (≈ 164 µg/mL).

What does the source list for Cc1[nH]c2ncnc(NC(=O)C3CC=CC3)c2c1C [ASAP-0000025]?
inhibition at 50 µM (SARS-CoV-2 nsp3-mac1 [6]): 73.1%; IC50 (SARS-CoV-2 nsp3-mac1 [7]; [14]): 42 µM

Which results are given for CC(C)C(Nc1ncnc2n[nH]cc12)c1cnn(C)c1 (stereo not drawn) [ASAP-0000031]?
inhibition at 50 µM (SARS-CoV-2 nsp3-mac1 [6]): 63.5%; IC50 (SARS-CoV-2 nsp3-mac1 [7]; [14]): 43 µM

For O=C(Nc1ccccc1)Nc1ccc(C(=O)NC2c3cccc(O)c3CC2C(=O)O)cc1 (stereo not drawn) [ASAP-0000132], which papp_a_to_b_mean [1] is on record?
The papp_a_to_b_mean was 0.7 ×10⁻⁶ cm/s.

What about the perc_recovery_a_to_b_mean [1] of the same compound?
Its perc_recovery_a_to_b_mean is 91.0%.

What about the perc_inhibition_mean (SARS-CoV-2 nsp3-mac1 [6]) of the same compound?
The perc_inhibition_mean was 99.903%.

And the inhibition at 50 µM (SARS-CoV-2 nsp3-mac1 [8]; read-out: perc_inhibition_mean, batch_name=ASAP-0000132-001)?
Its inhibition at 50 µM is 99.9%.

And the clint [3, 13]?
Its clint is 2.0 µL/min/mg.

And the perc_remaining [3, 13]?
Its perc_remaining is 111.0%.

And the t_half [3, 13]?
The t_half was 1066.4 min.

What about the perc_remaining_no_cofactor ([3]; In vitro mouse liver microsomal stability; no cofactor) of the same compound?
The perc_remaining_no_cofactor was 99.0%.

What about the logd (LogD) of the same compound?
The logd was 0.12.

What about the hill_slope (SARS-CoV-2 nsp3-mac1 [7]) of the same compound?
The hill_slope was 1.06.

What about the perc_max_measured (SARS-CoV-2 nsp3-mac1 [7]; TR-FRET dose response) of the same compound?
Its perc_max_measured is 99.438%.

What about the perc_min_measured (SARS-CoV-2 nsp3-mac1 [7]; TR-FRET dose response) of the same compound?
Its perc_min_measured is -1.931%.

And the pic50 (SARS-CoV-2 nsp3-mac1 [7]; TR-FRET dose response, supplement)?
Its pic50 is 5.991.

What about the IC50 (SARS-CoV-2 nsp3-mac1 [7]; [15]) of the same compound?
The IC50 was 1.02 µM.

What about the clint [4] of the same compound?
The clint was 9.0 µL/min/mg.

What about the perc_remaining [4] of the same compound?
The perc_remaining was 123.0%.

What about the t_half [4] of the same compound?
Its t_half is 187.2 min.

What about the perc_remaining_no_cofactor [4] of the same compound?
The perc_remaining_no_cofactor was 96.0%.

What about the solubility_mean [5] of the same compound?
The solubility_mean was 319 µM (≈ 138 µg/mL).

Which perc_inhibition_mean (SARS-CoV-2 nsp3-mac1 [6]) does the source give for O=C(NCc1cc2n(n1)CCCC2)c1cc2cncnc2[nH]1 [ASAP-0000134] here?
The perc_inhibition_mean was 4.173%.

And the inhibition at 50 µM (SARS-CoV-2 nsp3-mac1 [8]; read-out: perc_inhibition_mean, batch_name=ASAP-0000134-001)?
The inhibition at 50 µM was 4.17%.

What about the perc_max_measured (SARS-CoV-2 nsp3-mac1 [7]; TR-FRET dose response) of the same compound?
Its perc_max_measured is 2.258%.

And the perc_min_measured (SARS-CoV-2 nsp3-mac1 [7]; TR-FRET dose response)?
Its perc_min_measured is -11.392%.

What about the IC50 (SARS-CoV-2 nsp3-mac1 [7]; [15]) of the same compound?
The IC50 was > 124 µM.

Which perc_inhibition_mean (SARS-CoV-2 nsp3-mac1 [6]) does the source give for O=C(c1cccc(Br)c1)N1CCC(c2ccn3ncc(C(=O)N4CCCCC4)c3c2)CC1 [ASAP-0000191] here?
The perc_inhibition_mean was 32.136%.

And the inhibition at 50 µM (SARS-CoV-2 nsp3-mac1 [8]; read-out: perc_inhibition_mean, batch_name=ASAP-0000191-001)?
Its inhibition at 50 µM is 32.1%.

What about the hill_slope (SARS-CoV-2 nsp3-mac1 [7]) of the same compound?
The hill_slope was 0.907.

And the perc_max_measured (SARS-CoV-2 nsp3-mac1 [7]; TR-FRET dose response)?
Its perc_max_measured is 41.392%.

And the perc_min_measured (SARS-CoV-2 nsp3-mac1 [7]; TR-FRET dose response)?
The perc_min_measured was -0.981%.

And the IC50 (SARS-CoV-2 nsp3-mac1 [7]; [15])?
Its IC50 is > 124 µM.

For O=C(OCc1cccc(Cl)n1)c1ncnc2[nH]ccc12 [ASAP-0000193], which perc_inhibition_mean (SARS-CoV-2 nsp3-mac1 [6]) is on record?
The perc_inhibition_mean was 11.426%.

What about the inhibition at 50 µM (SARS-CoV-2 nsp3-mac1 [8]; read-out: perc_inhibition_mean, batch_name=ASAP-0000193-001) of the same compound?
The inhibition at 50 µM was 11.4%.

And the hill_slope (SARS-CoV-2 nsp3-mac1 [7])?
The hill_slope was 1.685.

And the perc_max_measured (SARS-CoV-2 nsp3-mac1 [7]; TR-FRET dose response)?
Its perc_max_measured is 38.614%.

And the perc_min_measured (SARS-CoV-2 nsp3-mac1 [7]; TR-FRET dose response)?
The perc_min_measured was -4.676%.

What about the IC50 (SARS-CoV-2 nsp3-mac1 [7]; [15]) of the same compound?
Its IC50 is > 124 µM.
